Assay results reported in patent US5244895A, “Anti-ulcer agent” (Hidaka; Hiroyoshi, priority 1991, dated 1993).

Key:
gastric juice secretion [1] = assay: Anti-gastric juice secretion test, intraduodenal administration (pylorus ligation); assay type: in vivo, Crj:Wistar rat (male); settings: 100 mg/kg intraduodenal, 4 h after pylorus ligation; for pH of gastric juice: control 1.7; for Amount of gastric juice: control 2.6; for Free hydrochloric acid: control 116; for Total acidity: control 168
Protocol: Each 100 mg/kg of the test compounds was administered duodenally to a male Crj:Wistar rat of 205 to 240 g body weight fasted for ca. 24 hours (7 to 8 rats per group) and immediately after the dose the pylorus was ligated under diethyl ether anesthesia. Four hours after the ligation, the animal was killed and the stomach was isolated and the amount and the pH of gastric juice and free hydrochloric acid contained in it and the total acidity of it were measured to examine the effect of inhibiting gastric juice secretion. The test compounds were dosed after dissolved in physiological saline or in physiological saline containing Tween 80 added. Five […] of physiological saline was administered to the control group.

aspirin ulcer [2] = assay: Anti-aspirin ulcer test, oral administration; assay type: in vivo, Crj:Wistar rat (male); settings: 100 mg/kg oral; for Gastric damage index: 30 min before aspirin 200 mg/kg oral, control 76.0; for Gastric damage index / inhibition in vivo at 100 mg/kg: 6 h; for inhibition in vivo at 100 mg/kg: Rattus norvegicus, read-out: Inhibition rate
Protocol: (§1) Each 100 mg/kg of the test compounds was administered orally to a male Crj:Wistar rat of 198 to 243 g body weight fasted for ca. 24 hours (7 to 8 rats per group) and 30 minutes after the administration 200 mg/5 ml/kg of aspirin suspended in 0.5% sodium CMC aqueous solution was administered orally. Six hours later the animals was killed by exsanguination and the cardia part of stomach was ligated and 10 ml of 1% formaline solution was poured into the stomach and the stomach was extirpated. Then, it was incised along the greater curvature side and washed with physiological saline and the major axis of the spotted and linear erosion and ulcer were measured under a steromicroscope and their total sum per head was calculated as the gastric damage index (mm) and the effect was judged by the inhibiting rate against the control group [(Gastric damage index of the control group-Gastric damage index of the test compound)/Gastric damage index of the control group×100]. 0.5 ml/body weight of 1% pontamine sky blue physiological saline was injected intravenously 10 minutes before the slaughter. The test compound was administered after dissolved in physiological saline or in physiological saline containing Tween 80 added. Five […] of physiological saline was administered to the control group.

[3] = tested on: water immersion restriction stress ulcer; assay: Water immersion restriction stress ulcer, oral administration; assay type: in vivo, Crj:Wistar rat (male); settings: 100 mg/kg oral; for Gastric damage index: 30 min before 6 h water immersion stress, control 15.7; for inhibition in vivo at 100 mg/kg: Rattus norvegicus, 6 h, read-out: Inhibition rate
Protocol: (§2) After the stress loading, the animal was killed by exsanguination and the cardia part of stomach was ligated and then 10 ml of 1% formalin was poured into the stomach and the stomach was extirpated. […] 0.5 ml/body weight of 1% pontamine sky blue physiological saline was injected intravenously 10 minutes before the slaughter. The test compound was administered after dissolved in physiological saline or in physiological saline containing Tween 80 added. Five […] of physiological saline was administered to the control group.

[4] = Acute toxicity, oral administration; assay type: in vivo, Sle:ICR mouse (male); settings: 300 mg/kg oral, 6 hours observation; for Mortality rate: deaths/mice
Protocol: (§3) Each test compound was administered to a male Sle:ICR mouse of 29 to 32 g body weight fasted for 18 to 20 hours (5 mice per group) to examine the presence of acute toxicity.

gastric juice secretion [5] = assay: Anti-gastric juice secretion test, intraperitoneal administration (pylorus ligation); assay type: in vivo, Crj:Wistar rat (male); settings: 100 mg/kg intraperitoneal, 30 min before pylorus ligation; for pH of gastric juice: control 1.7; for Amount of gastric juice: control 3.2; for Free hydrochloric acid: control 155; for Total acidity: control 208
aspirin ulcer [6] = assay: Anti-aspirin ulcer test, intraperitoneal administration; assay type: in vivo, Crj:Wistar rat (male); settings: for Gastric damage index: 100 mg/kg intraperitoneal (abdominally injected), control 58.8; for Inhibition rate: gastric damage index vs control, 100 mg/kg intraperitoneal
Protocol: as §1
Each 100 mg/kg of the test compound was abdominally injected to a male Crj:Wistar rat of 210 to 265 g body weight fasted for ca. 24 hours (7 to 8 rats per group) and the procedures were carried out in a same manner as in oral administration.

[7] = tested on: water immersion restriction stress ulcer; assay: Water immersion restriction stress ulcer, intraperitoneal administration; assay type: in vivo, Crj:Wistar rat (male); settings: 100 mg/kg intraperitoneal; for Gastric damage index: control 22.7; for Inhibition rate: gastric damage index vs control
Protocol: as §2

[8] = Acute toxicity, intraperitoneal administration; assay type: in vivo, Sle:ICR mouse (male); settings: 200 mg/kg intraperitoneal, 6 hours observation; for Mortality rate: deaths/mice
Protocol: as §3

[9] = gastric damage index vs control, aspirin 200 mg/kg
[10] = gastric damage index vs control, water immersion stress

SMILES: CN(C(Cc1ccc(O)cc1)CN1CCN(C(=O)OCc2ccccc2)CC1)S(=O)(=O)c1cccc2cnccc12 (stereo not drawn) [(4), N-[2-(4-benzyloxycarbonylpiperazinyl)-1-(p-hydroxybenzyl)ethyl]-N-methyl-5-isoquinoline sulfonamide]
- pH of gastric juice (gastric juice secretion [1]): 2.3
- Amount of gastric juice (gastric juice secretion [1]): 1.8 ml/100 g body weight
- Free hydrochloric acid (gastric juice secretion [1]): 36 μEq/100 g body weight
- Total acidity (gastric juice secretion [1]): 74 μEq/100 g body weight
- Gastric damage index (aspirin ulcer [2]): 34.6 mm
- inhibition in vivo at 100 mg/kg (aspirin ulcer [2]; [9]): 55%
- Gastric damage index [3]: 8.4 mm
- inhibition in vivo at 100 mg/kg [3, 10]: 46%
- General condition [4]: No abnormality
- Mortality rate [4]: 0/5

SMILES: COc1ccc(CC(CN2CCN(C(=O)OCc3ccccc3)CC2)N(C)S(=O)(=O)c2cccc3cnccc23)cc1 (stereo not drawn) [(5), N-[2-(4-benzyloxycarbonylpiperazinyl)-1-(p-methoxybenzyl)ethyl]-N-methyl-5-isoquinoline sulfonamide]
- pH of gastric juice (gastric juice secretion [1]): 2.3
- Amount of gastric juice (gastric juice secretion [1]): 1.8 ml/100 g body weight
- Free hydrochloric acid (gastric juice secretion [1]): 48 μEq/100 g body weight
- Total acidity (gastric juice secretion [1]): 80 μEq/100 g body weight
- Gastric damage index (aspirin ulcer [2]): 36.5 mm
- inhibition in vivo at 100 mg/kg (aspirin ulcer [2]; [9]): 53%
- Gastric damage index [3]: 7.7 mm
- inhibition in vivo at 100 mg/kg [3, 10]: 51%
- General condition [4]: No abnormality
- Mortality rate [4]: 0/5

SMILES: CN(C(Cc1ccc(O)cc1)CN1CCCN(C(=O)OCc2ccccc2)CC1)S(=O)(=O)c1cccc2cnccc12 (stereo not drawn) [(14), N-[2-(4-benzyloxycarbonylhomopiperazinyl)-1-(p-hydroxybenzyl)ethyl]-N-methyl-5-isoquinoline sulfonamide]
- pH of gastric juice (gastric juice secretion [1]): 3.1
- Amount of gastric juice (gastric juice secretion [1]): 0.6 ml/100 g body weight
- Free hydrochloric acid (gastric juice secretion [1]): 8 μEq/100 g body weight
- Total acidity (gastric juice secretion [1]): 11 μEq/100 g body weight
- pH of gastric juice (gastric juice secretion [5]): 3.0
- Amount of gastric juice (gastric juice secretion [5]): 0.6 ml/100 g body weight
- Free hydrochloric acid (gastric juice secretion [5]): 4 μEq/100 body weight
- Total acidity (gastric juice secretion [5]): 17 μEq/100 body weight
- Gastric damage index (aspirin ulcer [2]): 11.2 mm
- inhibition in vivo at 100 mg/kg (aspirin ulcer [2]; [9]): 85%
- Gastric damage index (aspirin ulcer [6]): 5.3 mm
- Inhibition rate (aspirin ulcer [6]): 91%
- Gastric damage index [3]: 4.3 mm
- inhibition in vivo at 100 mg/kg [3, 10]: 73%
- Gastric damage index [7]: 3.9 mm
- Inhibition rate [7]: 83%
- General condition [4]: No abnormality
- Mortality rate [4]: 0/5
- General condition [8]: No abnormality
- Mortality rate [8]: 0/5

SMILES: COc1ccc(CC(CN2CCCN(C(=O)OCc3ccccc3)CC2)N(CCN)S(=O)(=O)c2cccc3cnccc23)cc1 (stereo not drawn) [(15), N-[2-(4-benzyloxycarbonylhomopiperazinyl)-1-(p-methoxybenzyl)ethyl]-N-(2-aminoethyl)-5-isoquinoline sulfonamide]
- pH of gastric juice (gastric juice secretion [1]): 2.6
- Amount of gastric juice (gastric juice secretion [1]): 1.1 ml/100 g body weight
- Free hydrochloric acid (gastric juice secretion [1]): 22 μEq/100 g body weight
- Total acidity (gastric juice secretion [1]): 43 μEq/100 g body weight
- pH of gastric juice (gastric juice secretion [5]): 2.6
- Amount of gastric juice (gastric juice secretion [5]): 1.3 ml/100 g body weight
- Free hydrochloric acid (gastric juice secretion [5]): 36 μEq/100 body weight
- Total acidity (gastric juice secretion [5]): 74 μEq/100 body weight
- Gastric damage index (aspirin ulcer [2]): 35.8 mm
- Inhibition rate (aspirin ulcer [2]; [9]): 64%
- Gastric damage index (aspirin ulcer [6]): 11.8 mm
- Inhibition rate (aspirin ulcer [6]): 80%
- Gastric damage index [3]: 6.6 mm
- Inhibition rate [3, 10]: 58%
- Gastric damage index [7]: 6.6 mm
- Inhibition rate [7]: 71%
- Mortality rate [4]: 0/5
- Mortality rate [8]: 0/5

SMILES: COc1ccc(CC(CN2CCCN(C(=O)OCc3ccccc3)CC2)N(CCN(C)C)S(=O)(=O)c2cccc3cnccc23)cc1 (stereo not drawn) [(16), N-[2-(4-benzyloxycarbonylhomopiperazinyl)-1-(p-methoxybenzyl)ethyl]-N-(2-dimethylaminoethyl)-5-isoquinoline sulfonamide]
- pH of gastric juice (gastric juice secretion [1]): 2.9
- Amount of gastric juice (gastric juice secretion [1]): 0.9 ml/100 g body weight
- Free hydrochloric acid (gastric juice secretion [1]): 11 μEq/100 g body weight
- Total acidity (gastric juice secretion [1]): 29 μEq/100 g body weight
- pH of gastric juice (gastric juice secretion [5]): 2.9
- Amount of gastric juice (gastric juice secretion [5]): 0.6 ml/100 g body weight
- Free hydrochloric acid (gastric juice secretion [5]): 8 μEq/100 body weight
- Total acidity (gastric juice secretion [5]): 24 μEq/100 body weight
- Gastric damage index (aspirin ulcer [2]): 17.0 mm
- inhibition in vivo at 100 mg/kg (aspirin ulcer [2]; [9]): 78%
- Gastric damage index (aspirin ulcer [6]): 10.6 mm
- Inhibition rate (aspirin ulcer [6]): 82%
- Gastric damage index [3]: 4.6 mm
- inhibition in vivo at 100 mg/kg [3, 10]: 70%
- Gastric damage index [7]: 5.4 mm
- Inhibition rate [7]: 76%
- General condition [4]: No abnormality
- Mortality rate [4]: 0/5
- General condition [8]: No abnormality
- Mortality rate [8]: 0/5
